This assay has as its system vascular permeability. The experiment in a line: Suppression of increased vascular permeability (λ-carrageenin, dye leakage) in guinea pigs. Format: in vivo, Hartley strain albino guinea pigs. The note with it: oral, 2.0 mg/kg; for Suppression rate: *p < 0.05. On the procedure: The hair on the back of Hartley strain albino guinea pigs (male; weighing 235 to 270 g; in groups of 7 animals) was removed with an electric hair clipper and an electric razor, circles, 2.5 cm in diameter (4.91 cm^2 in area), were drawn symmetrically on both sides of the medium line, and 50 mg of each test external preparation was applied to the area of each circle. Three hours after application, 0.1 ml of 0.1% λ-carrageeninsolution was injected intradermally into the center of each circle, followed by injection of 0.5 ml/100 g of body weight of 0.5% Pontamine sky blue solution into the vein of the penis. Three hours after injection, each animal was sacrificed by decapitation, exsanguinated and flayed, and the area of dye leakage (major axis x minor axis) on the inner side of the skin was measured with slide calipers.
The external preparations used were preparations (A), (D), (E) and (H) containing of 0.1%, 0.25%, 0.5% and 1% of clidanac, respectively, and preparations (f), (g), (h) and (i) containing 0.1%, 0.25%, 0.5% and 1% of indomethacin, respectively. In the control group, any preparation was not administered but massage alone was performed.
For further comparison, oral preparations respectively containing clidanac and indomethacin were prepared by the procedure of Reference Example 4 and orally administered in a clidanac dose of 2 mg/kg and in an indomethacin dose of 2 mg/kg, respectively, and the animals were treated in the same manner as mentioned above.
The rate of suppression was calculated using the follwoing formula: [formula] where C is the area of dye leakage for the control group and T is the area of dye leakage for the drug-treated group.

Regarding `COc1ccc2c(c1)c(CC(=O)O)c(C)n2C(=O)c1ccc(Cl)cc1` [Indomethacin], the “Area of dye leakage” value was found to be 195.7 ± 13.6 mm^2 and the Suppression rate was 16.6%.

`O=C(O)C1CCc2cc(C3CCCCC3)c(Cl)cc21` (stereo not shown) [Clidanac, 6-chloro-5-cyclohexylindane-1-carboxylic acid]: the “Area of dye leakage” value came out at 193.8 ± 12.1 mm^2 and the Suppression rate is 17.4%.

For the origin of these results see patent US4500511A, “Antiinflammatory and analgesic gel” (Grelan Pharmaceutical Co., Ltd., priority 1982, dated 1985).
